{"source": "patent US9114163B2", "about": "“Medication against breast cancer and related diseases” (MaBel GmbH, priority 2006, dated 2015)", "key": {"MCF-7 cells": {"system": "MCF-7 cells", "test": "Inhibition of MCF-7 cell proliferation (counting of vital cells)", "format": "cell-based, human", "details": "10^-7 M, 10^-8 M, 10^-9 M; cell counts after 3, 6 and 9 days; compared with DHT and control", "protocol": "MCF-7 cells were grown in RPMI 1640 medium at 37° C. to a cell number of about 1*10^5 cells/ml. Then, in quadruple identical MCF-7 cell samples, there were added either dihydrotestosterone (DHT) or 4-hydroxytestosterone (4-OHT), to obtain different concentrations thereof, namely 10^−7 M, 10^−8 M or 10^−9 M, and further growth of cells were determined by counting of vital cells. During the course of incubation at 37° C., cell counting were performed after 3, 6 and 9 days. For control, growth of MCF-7 cells were determined without addition of an active agent.\nThe results on an inhibition of MCF-7 cell proliferation are shown in FIGS. 1A, 1B and 1C for the compound concentrations of 10^−7 M, 10^−8 M and 10^−9 M of either DHT or 4-OHT, respectively, and compared with the control."}, "[1]": {"system": "malign breast carcinoma (C. mammae)", "test": "Double blind clinical test, topical cream, patients with malign breast carcinoma", "format": "in vivo, human", "details": "for Clinical Remission: topical cream once a day", "protocol": "(§1) Double blind clinical tests were conducted with a group of 10 female patients. In this clinical testing, particular attention was paid to hormone receptor statuses of patients' target breast cancer tissue regarding progesterone receptor (PR) and in particular regarding estrogen receptor (ER); The cancers of the patients were assumed to be predominantly androgen receptor (AR) positive. Among this group, six patients had histologically ascertained malign breast carcinoma (C. mammae). […] In a sixth patient, the presence of a malign breast carcinoma was ascertained, but the amount of cancer tissue was too low to determine receptor status.\n(§2) All 10 female patients were topically and locally treated using 4-hydroxytestosterone as active agent, by administering of a cream as described in Example 2 locally to target skin portions of the breasts. After continuing daily topical administration once a day during an administration period of 3 months, clinical investigations on therapeutic effects were performed.\nThe results of the 6 patients having malign breast carcinoma are shown in the following Table 1, together with the receptor status determined for patient nos. 1 to 5."}, "[2]": {"system": "normal or mastopathic breast tissue", "test": "Double blind clinical test, topical cream, patients with non-malign breast tissue", "format": "in vivo, human", "details": "4 patients with non-malign disease states, topical administration", "protocol": "as §1, §2"}}, "data": [{"smiles": "C[C@]12CC[C@H]3[C@@H](CCC4=C(O)C(=O)CC[C@@]43C)[C@@H]1CC[C@@H]2O", "note": "[4-hydroxytestosterone, 4,17β-dihydroxyandrost-4-ene-3-one]", "values": [{"measurement": "inhibitory effect on MCF-7 cell proliferation", "setting": "MCF-7 cells", "result": "significantly enhanced inhibitory effect"}, {"measurement": "Clinical Remission", "setting": "[1]; Patient # 1, ER 0, PR 0, Her2neu 0, 3 months", "result": "yes"}, {"measurement": "Clinical Remission", "setting": "[1]; Patient # 3, ER 0, PR 0, Her2neu 0, 3 months", "result": "yes"}, {"measurement": "Clinical Remission", "setting": "[1]; Patient # 6, receptor status not determined, 3 months", "result": "yes"}, {"measurement": "treatment of ER negative cancer cells", "setting": "[1]; clinical study, ER negative tumours, topical cream, 3 months", "result": "effectively treated"}, {"measurement": "efficacy in shrinking cancerous tissues", "setting": "[1]; clinical study, topical cream, 3 months", "result": "excellent efficacy in shrinking cancerous tissues"}, {"measurement": "patients with noticeable remission of breast cancer tissues as determined by mammography", "setting": "[1]; of 6 patients with malign breast carcinoma, those so far subjected to post-treatment investigation, 3 months topical", "result": "three"}, {"measurement": "tissue reduction of normal or mastopathic appearing tissues", "setting": "[2]", "result": "clear tendency for tissue reduction"}]}]}
